The results in this text go back to ChEMBL document CHEMBL4680150, “Design, synthesis and biological evaluation of vincamine derivatives as potential pancreatic β-cells protective agents for the treatment of type 2 diabetes mellitus” (Eur J Med Chem, 2020).

Activity calls are given as the source filed them. Unless noted, the rule behind the calls is not given here.

In general, EC50 refers to the concentration that produces a half-maximal response.

The test system of assay [1] is INS1(832/13). The assay can be described thus: Cytoprotective activity against STZ-induced rat INS-1 832/13 cells assessed as increase in IRS2 mRNA expression at 5 to 20 uM after 24 hrs RT-PCR analysis. It is filed as functional, cell-based. The conditions noted are these: dose 5-20 µM.
In assay [2] the test system is INS1(832/13). The assay can be described thus: Potency index, ratio of vincamine EC50 to test compound EC50 for cytoprotective activity in rat INS-1 832/13 cells assessed as inhibition of STZ-induced apoptosis. It is filed as functional.
Assay [3] relates to INS1(832/13). Kind of assay: Cytoprotective activity in rat INS-1 832/13 cells assessed as inhibition of STZ-induced apoptosis at 20 uM incubated for 24 hrs in presence of wortmannin by MTT assay. In kind it is functional, cell-based. A general note: Tetrazolium dyes change colour on reduction, which living cells bring about.
The subject of assay [4] is INS-1 832/13. Kind of assay: Activation of AKT in STZ-induced rat INS-1 832/13 cells assessed as increase in Akt phosphorylation at 5 to 20 uM after 24 hrs by AlphaLISA assay. Conditions: filed as activator, dose 5-20 µM. For orientation: Alpha assays give light when donor and acceptor beads are brought close together.
Assay [5] deals with INS-1 832/13. The assay can be described thus: Activation of PI3K/Akt signalling pathway in STZ-induced rat INS-1 832/13 cells assessed as increase in phosphorylation of GSK3beta at Ser9 residue at 5 to 20 uM after 24 hrs by Western blot analysis. The conditions noted are these: filed as activator, dose 5-20 µM.
Assay [6] deals with INS-1 832/13. Kind of assay: Activation of AKT in STZ-induced rat INS-1 832/13 cells assessed as increase in Akt phosphorylation at 20 uM after 24 hrs in presence of wortmannin by Western blot analysis.
Assay [7] deals with INS1(832/13). The assay can be described thus: Cytoprotective activity against STZ-induced toxicity in rat INS-1 832/13 cells assessed as mass of apoptotic cells at 10 uM by Annexin V-FITC staining based flow cytometric analysis (reference value: 40.8%). In kind it is functional.
The test system of assay [8] is INS1(832/13). Kind of assay: Cytoprotective activity against STZ-induced rat INS-1 832/13 cells assessed as increase in IRS2 protein expression at 5 to 20 uM after 24 hrs Western blot analysis. The conditions noted are these: dose 5-20 µM. It is filed as functional, cell-based.
The test system of assay [9] is INS-1 832/13. Kind of assay: Activation of PI3K/Akt signalling pathway in STZ-induced rat INS-1 832/13 cells assessed as decrease in caspase 9 protein expression at 5 to 20 uM after 24 hrs by Western blot analysis. Conditions: filed as activator, dose 5-20 µM. (In general: A western blot detects proteins with antibodies after separation by electrophoresis.)
Assay [10] relates to INS-1 832/13. The assay can be described thus: Activation of PI3K/Akt signalling pathway in STZ-induced rat INS-1 832/13 cells assessed as increase in phosphorylation of FOX01 at Ser256 residue at 5 to 20 uM after 24 hrs by Western blot analysis. Conditions: filed as activator, dose 5-20 µM.
Assay [11] relates to INS1(832/13). The assay can be described thus: Cytoprotective activity against STZ-induced toxicity in rat INS-1 832/13 cells assessed as mass of apoptotic cells at 5 uM by Annexin V-FITC staining based flow cytometric analysis (reference value: 40.8%). It is filed as functional.
The test system of assay [12] is INS1(832/13). Kind of assay: Cytoprotective activity in rat INS-1 832/13 cells assessed as inhibition of STZ-induced apoptosis incubated for 24 hrs by MTT assay. It is filed as functional, cell-based. The conditions noted are these: INS-1 832/13, 24 h.
Assay [13] has as its system INS-1 832/13. Kind of assay: Activation of PI3K/Akt signalling pathway in STZ-induced rat INS-1 832/13 cells assessed as decrease in Bim mRNA expression at 5 to 20 uM after 24 hrs by RT-PCR analysis. The conditions noted are these: filed as activator, dose 5-20 µM.
Assay [14] deals with INS-1 832/13. Kind of assay: Activation of PI3K/Akt signalling pathway in STZ-induced rat INS-1 832/13 cells assessed as decrease in p21 mRNA expression at 5 to 20 uM after 24 hrs by RT-PCR analysis. The conditions noted are these: filed as activator, dose 5-20 µM.
The test system of assay [15] is INS1(832/13). The assay can be described thus: Cytoprotective activity against STZ-induced toxicity in rat INS-1 832/13 cells assessed as mass of apoptotic cells at 20 uM by Annexin V-FITC staining based flow cytometric analysis (reference value: 40.8%). In kind it is functional.
The subject of assay [16] is INS-1 832/13. The assay can be described thus: Activation of PI3K/Akt signalling pathway in STZ-induced rat INS-1 832/13 cells assessed as decrease in caspase 3 protein expression at 5 to 20 uM after 24 hrs by Western blot analysis. Conditions: filed as activator, dose 5-20 µM.
The subject of assay [17] is INS-1 832/13. The assay can be described thus: Activation of PI3K/Akt signalling pathway in STZ-induced rat INS-1 832/13 cells assessed as decrease in cleaved-caspase 3 protein expression at 5 to 20 uM after 24 hrs by Western blot analysis. Conditions: filed as activator, dose 5-20 µM.
For assay [18], the system named is INS-1 832/13. The assay can be described thus: Activation of AKT in STZ-induced rat INS-1 832/13 cells assessed as increase in Akt phosphorylation at 5 to 20 uM after 24 hrs by Western blot analysis. The conditions noted are these: filed as activator, dose 5-20 µM.
The test system of assay [19] is INS1(832/13). Kind of assay: Cytoprotective activity against STZ-induced toxicity in rat INS-1 832/13 cells at 10 uM incubated for 24 hrs by MTT assay. In kind it is functional, cell-based.
In assay [20] the test system is INS1(832/13). The assay can be described thus: Cytoprotective activity against STZ-induced toxicity in rat INS-1 832/13 cells at 20 uM incubated for 24 hrs by MTT assay. In kind it is functional, cell-based.
For assay [21], the system named is INS-1 832/13. Kind of assay: Activation of AKT in STZ-induced rat INS-1 832/13 cells assessed as increase in Akt phosphorylation at 20 uM after 24 hrs by AlphaLISA assay. The conditions noted are these: filed as activator.
In assay [22] the test system is INS1(832/13). Kind of assay: Cytoprotective activity in rat INS-1 832/13 cells assessed as inhibition of STZ-induced apoptosis at 20 uM incubated for 24 hrs by MTT assay relative to control. In kind it is functional. Set-up: scale not given: the % may be the effect or the level left.
Assay [23] relates to INS-1 832/13. Kind of assay: Activation of AKT in STZ-induced rat INS-1 832/13 cells assessed as increase in Akt phosphorylation at 20 uM after 24 hrs by Western blot analysis. The conditions noted are these: filed as activator.

With `CC[C@@]12C=C(CO)n3c4c(c5ccccc53)CCN(CCC1)[C@H]42`, the result in [1], in assay [4], in assay [5], in assay [8], in [9] and in assay [10] was Active. Besides, the outcome in assay [13], in assay [14], in assay [16], in [17], in assay [18] and in assay [19] was Active. In assay [2], the “Ratio EC50” value is given as 2. For the same compound, the outcome in assay [3] and in assay [6] was inactive. Moreover, the Activity in [7] worked out at 26.1%; in assay [11], 32%; in assay [15], 19.1%. For the same compound, the EC50 in assay [12] amounted to 220 nM.
Consider `CC[C@]12CCCN3CCc4c(n(c5ccccc45)[C@@](O)(C(=O)OC)C1)[C@@H]32` [VINCAMINE], for which the outcome in assay [3] and in assay [6] was inactive. Also, the outcome in assay [20], in [21] and in [23] was Active. Moreover, the EC50 in assay [12] turned out to be 11000 nM. The figures for the Activity in [22] and in assay [15] were 63% and 28.7%, respectively.
Consider `CCNCC1=C[C@]2(CC)CCCN3CCc4c(n1c1ccccc41)[C@@H]32`, for which the outcome in [1], in assay [4], in assay [5], in assay [8], in assay [9] and in assay [10] was Active. The outcome in assay [13], in [22], in assay [14], in assay [16], in [17] and in [18] was Active. In addition, the result in assay [19] was Active. Further, in assay [2], the “Ratio EC50” value was determined as 2. The result in assay [3] and in assay [6] was inactive. For the same compound, the Activity in [7] worked out at 29.1%; in assay [11], 31.3%; in assay [15], 24.1%. For the same compound, in [12], the EC50 amounted to 270 nM.
For `CCCC(=O)OCC1=C[C@]2(CC)CCCN3CCc4c(n1c1ccccc41)[C@@H]32`, the EC50 in [12] was determined as 3770 nM. In addition, the outcome in assay [22] was Active.
On the same counts, the results for `CC[C@@]12C=C(C(=O)NC)n3c4c(c5ccccc53)CCN(CCC1)[C@H]42` are 660 nM and “Active”.
